# Assay results reported in patent US4436751A, “Nitrobenzyl monates antibacterial compounds” (Beecham Group Limited, priority 1980, dated 1984).
# Experiments:
# Format in all cases: cell-based
# [1] = system: M. suipneumoniae J2206/183b; experiment: Anti-mycoplasmal MIC in vitro, Friis broth agarose (Table 1); details: Mesomycoplasma hyopneumoniae, J2206/183B, 144 h
# [2] = system: M. suipneumoniae PW/C/210; experiment: as above; details: Mesomycoplasma hyopneumoniae, 144 h
# M. suipneumoniae OCD 1 = experiment: as above; details: Mesomycoplasma hyopneumoniae, OCD1, 144 h
# E. coli ESS = experiment: Human bacteria MIC, nutrient agar with chocolated horse blood (Table 3); details: Escherichia coli, 18 h
# Experimental: (§1) The values were determined by serial dilutions in nutrient agar with 5% chocolated horse blood after incubations for 18 hours at 37° C.
# [3] = system: Neisseria catarrhalis 1502; experiment: as above; details: Neisseria, 1502, 18 h
# Experimental: as §1
# Strep. pneumoniae CN33 = experiment: as above; details: Streptococcus pneumoniae, CN33, 18 h
# Experimental: as §1
# Strep. 2733-B = experiment: as above; details: 18 h
# Experimental: as §1
# Strep. 641848-C = experiment: as above; details: 18 h
# Experimental: as §1
# M. suipneumoniae Str. 11 = experiment: Anti-mycoplasmal MIC in vitro, Friis broth agarose (Table 1); details: Mesomycoplasma hyopneumoniae, STR.11, 144 h
# M. suipneumoniae HR(2) = experiment: as above; details: Mesomycoplasma hyopneumoniae, 144 h
# M. bovis RCTC 10131 = experiment: microbe, parasite or virus in culture; details: RCTC10131, 144 h
# Strep. agalactiae SPA1 = experiment: Veterinary bacteria MIC, Diagnostic Sensitivity Test Agar (Table 2); details: Streptococcus agalactiae, SPA1, 18 h
# Experimental: (§2) The values were determined using a two fold serial dilutions in Diagnostic Sensitivity Test Agar with an inoculum of 10^4 organisms and incubation for 18 hours at 37° C.
# [4] = system: Erysipelothrix rhusiopathiae NCTC 8163; experiment: as above; details: Erysipelothrix rhusiopathiae, NCTC8163, 18 h
# Experimental: as §2
# Staph. aureus 152 = experiment: as above; details: Staphylococcus aureus, 152, 18 h
# Experimental: as §2
# Past. multocida PA1 = experiment: as above; details: Pasteurella multocida, PA1, 18 h
# Experimental: as §2
# Past. haemolytica PA5 = experiment: as above; details: Mannheimia haemolytica, PA5, 18 h
# Experimental: as §2
# S. typhimurium S18 = experiment: as above; details: Salmonella enterica, TYPHIMURIUM, 18 h
# Experimental: as §2
# [5] = system: Corynebacterium pyogenes CY1; experiment: as above; details: Trueperella pyogenes, CY1, 18 h
# Experimental: as §2
# [6] = system: M. suipneumoniae ATCC 25095; experiment: Anti-mycoplasmal MIC in vitro, Friis broth agarose (Table 1); details: Mesomycoplasma hyopneumoniae, ATCC25095, 144 h
# M. hyorhinis ATCC 25021 = experiment: as above; details: Mesomycoplasma hyorhinis, ATCC25021, 144 h
# M. suipneumoniae JF 435 = experiment: as above; details: Mesomycoplasma hyopneumoniae, JF435, 144 h
# M. dispar RCTC 10125 = experiment: as above; details: 144 h
# [7] = system: M. suipneumoniae NCTC 10110; experiment: as above; details: Mesomycoplasma hyopneumoniae, NCTC10110, 144 h
# [8] = system: M. hyosynoviae ATOC 25591; experiment: as above; details: 144 h
# M. suipneumoniae NB12 = experiment: as above; details: Mesomycoplasma hyopneumoniae, NB12, 144 h
# M. suipneumoniae MS 16 = experiment: as above; details: Mesomycoplasma hyopneumoniae, MS16, 144 h
# [9] = system: M. bovigenitalium ATOC 14173; experiment: as above; details: 144 h
# M. suipneumoniae TAM 6N = experiment: as above; details: Mesomycoplasma hyopneumoniae, TAM6N, 144 h
Structure (SMILES),MIC [1] [µg/mL],MIC [2] [µg/mL],MIC (M. suipneumoniae OCD 1) [µg/mL],MIC (E. coli ESS) [µg/mL],MIC [3] [µg/mL],MIC (Strep. pneumoniae CN33) [µg/mL],MIC (Strep. 2733-B) [µg/mL],MIC (Strep. 641848-C) [µg/mL],MIC (M. suipneumoniae Str. 11) [µg/mL],MIC (M. suipneumoniae HR(2)) [µg/mL],MIC (M. bovis RCTC 10131) [µg/mL],MIC (Strep. agalactiae SPA1) [µg/mL],MIC [4] [µg/mL],MIC (Staph. aureus 152) [µg/mL],MIC (Past. multocida PA1) [µg/mL],MIC (Past. haemolytica PA5) [µg/mL],MIC (S. typhimurium S18) [µg/mL],MIC [5] [µg/mL],MIC [6] [µg/mL],MIC (M. hyorhinis ATCC 25021) [µg/mL],further results
"C/C(=C\C(=O)OCc1cc([N+](=O)[O-])cc([N+](=O)[O-])c1)CC1OCC(CC2OC2C(C)C(C)O)C(O)C1O (stereo not shown) [Example 6, 3,5-dinitrobenzyl monate A]",0.05,0.025,0.05,1,< 0.025,0.25,0.5,0.5,0.025,0.05,≤ 0.01,0.312,20,0.312,1.25,5,80,> 80,0.05,0.025,MIC (M. suipneumoniae JF 435): 0.05 µg/mL; MIC (M. dispar RCTC 10125): ≤ 0.01 µg/mL; MIC [7]: 0.05 µg/mL; MIC [8]: 0.025 µg/mL; MIC (M. suipneumoniae NB12): 0.05 µg/mL; MIC (M. suipneumoniae MS 16): 0.025 µg/mL; MIC [9]: ≤ 0.01 µg/mL; MIC (M. suipneumoniae TAM 6N): 0.05 µg/mL
"C/C(=C\C(=O)OCc1cc([N+](=O)[O-])cc([N+](=O)[O-])c1C)CC1OCC(CC2OC2C(C)C(C)O)C(O)C1O (stereo not shown) [Example 7, 3,5-dinitro-2-methylbenzyl monate A]",0.25,0.1,0.25,2.5,0.25,0.5,2.5,1,0.1,0.25,≤ 0.1,0.625,10,0.625,2.5,5,> 80,> 80,0.25,0.1,MIC (M. suipneumoniae JF 435): 0.25 µg/mL; MIC (M. dispar RCTC 10125): 0.05 µg/mL; MIC [7]: 0.25 µg/mL; MIC [8]: 0.1 µg/mL; MIC (M. suipneumoniae NB12): 0.25 µg/mL; MIC (M. suipneumoniae MS 16): 0.1 µg/mL; MIC [9]: ≤ 0.1 µg/mL; MIC (M. suipneumoniae TAM 6N): 0.25 µg/mL
"C/C(=C\C(=O)OCc1ccc([N+](=O)[O-])c([N+](=O)[O-])c1)CC1OCC(CC2OC2C(C)C(C)O)C(O)C1O (stereo not shown) [Example 9, 3,4-dinitrobenzyl monate A]",1,0.25,0.5,1,0.05,2.5,2.5,2.5,0.25,0.5,≤ 0.01,0.312,40,0.312,0.625,5,80,> 80,0.25,0.25,MIC (M. suipneumoniae JF 435): 1 µg/mL; MIC (M. dispar RCTC 10125): 0.025 µg/mL; MIC [7]: 0.5 µg/mL; MIC [8]: 0.5 µg/mL; MIC (M. suipneumoniae NB12): 0.25 µg/mL; MIC (M. suipneumoniae MS 16): 0.25 µg/mL; MIC [9]: ≤ 0.01 µg/mL; MIC (M. suipneumoniae TAM 6N): 0.5 µg/mL
"C/C(=C\C(=O)OCc1ccc([N+](=O)[O-])cc1[N+](=O)[O-])CC1OCC(CC2OC2C(C)C(C)O)C(O)C1O (stereo not shown) [Example 10, 2,4-dinitrobenzyl monate A]",1,0.5,1,2.5,0.05,2.5,2.5,2.5,0.5,1,≤ 0.01,1.25,20,0.625,2.5,2.5,> 80,> 80,0.5,0.5,MIC (M. suipneumoniae JF 435): 1 µg/mL; MIC (M. dispar RCTC 10125): 0.25 µg/mL; MIC [7]: 1 µg/mL; MIC [8]: 0.25 µg/mL; MIC (M. suipneumoniae NB12): 1 µg/mL; MIC (M. suipneumoniae MS 16): 0.5 µg/mL; MIC [9]: 0.025 µg/mL; MIC (M. suipneumoniae TAM 6N): 1 µg/mL
